This note sets out measurements from patent US9663448B2, “Tri-aryl compounds and compositions comprising the same” (BEN-GURION UNIVERSITY OF THE NEGEV RESEARCH AND DEVELOPMENT …, priority 2007, dated 2017).

A short description of the data set: Solubility noted at work-up of the synthesis. It is filed as physicochemical. The following applies: qualitative remark. The procedure:
1,1,1-tris(4-hydroxyphenyl)ethane (1.53 gr, 5 mM), formaldehyde (1.35 gr, 45 mM) and 1-methyl piperazine (2.5 ml, 50 mM) in 20 ml water and 25 ml EtOH were refluxed for 3 hours. Evaporation provided a solid that by TLC and NMR contained 2 products, which was not the starting material. Formaldehyde (0.75 gr, 25 mM) and 1-methyl piperazine (1.5 ml, 30 mM) were added to 5 ml water and 10 ml EtOH and the reaction was refluxed for 4 hours. Evaporation and workup gave 3.3 gr light yellow-white solid, 67% yield, mp. […].

Consider `CN1CCN(Cc2cc(C(C)(c3cc(CN4CCN(C)CC4)c(O)c(CN4CCN(C)CC4)c3)c3cc(CN4CCN(C)CC4)c(O)c(CN4CCN(C)CC4)c3)cc(CN3CCN(C)CC3)c2O)CC1` [VIII], for which the solubility in ethanol entry (solvent ethanol) is reported as “Soluble”. Under “solvent water”, the solubility in water entry is on record as “very good solubility”.
